Data: patent US8809315B2, “Combination medicaments for treating bacterial infections” (Basilea Pharmaceutica AG, priority 2007, dated 2014)

What was measured:
Assay in all cases: MIC, broth microdilution (NCCLS M7-A6)
Type in all cases: cell-based
[1] = tested on: Enterobacter aerogenes Zayakosky 5 [DSM 18992]; conditions: E. aerogenes Zayakosky 5; combinations of equal weights; IsoSensiTest Broth + 16 μg/mL 2,2'-bipyridyl
Description: (§1) Antimicrobial activity of the compounds and of their combinations is determined against a selection of organisms according to standard procedures described by the National Committee for Clinical Laboratory Standards (NCCLS document M7-A6). […] In all cases the final concentration of DMSO incubated with the bacteria is less than or equal to 1%. […] Plates are incubated overnight at an appropriate temperature (30° C. or 37° C.) and optical densities assessed by eye. The MIC value is defined as the lowest compound concentration completely inhibiting visible growth of the test organism. Synergism tests are performed under the same conditions as described above but with two antimicrobial agents dispensed in checkerboard format [Isenberg H D (1992) Synergism testing: Broth microdilution checkerboard and broth macrodilution methods. In: Clinical Microbiology Procedures Manual vol. 1. Washington, D.C.: American Society for Microbiology. […] The strains used are: Pseudomonas aeruginosa 6067 (Accession number at the DSMZDeutsche Sammlung von Mikroorganismen and Zellkulturen GmbH, Inhoffenstr. 7 B, D-38124 Braunschweig: […] (DSM 18988), Achromobacter (formerly Alcaligenes) xylosoxidans QK3/96 (DSM 18991), Enterobacter aerogenes Zayakosky 5 (DSM 18992).

[2] = tested on: Achromobacter (formerly Alcaligenes) xylosoxidans QK3/96 [DSM 18991]; conditions: A. xylosoxidans QK3/96; combinations of equal weights; IsoSensiTest Broth + 16 μg/mL 2,2'-bipyridyl
Description: as §1

[3] = tested on: Pseudomonas aeruginosa (67/2B)2R.A. [DSM 18988]; conditions: P. aeruginosa (67/2B)2R.A.; combinations of equal weights; IsoSensiTest Broth + 16 μg/mL 2,2'-bipyridyl
Description: as §1

[4] = tested on: Pseudomonas aeruginosa 6067 [DSM 18987]; conditions: P. aeruginosa 6067; combinations of equal weights; IsoSensiTest Broth + 16 μg/mL 2,2'-bipyridyl
Description: as §1

**Q.** C[C@H]1[C@H](NC(=O)/C(=N\OC(C)(C)C(=O)O)c2csc(N)n2)C(=O)N1S(=O)(=O)O [Aztreonam, (Z)-2-[[[(2-amino-4-thiazolyl)[[(2S,3S)-2-methyl-4-oxo-1-sulfo-3-azetidinyl]-carbamoyl]methylene]amino]oxy]-2-methylpropionic acid] was tested. Which “Minimum Inhibitory Concentration” value [1] did it give?
**A.** The value was 64 mg/L.

**Q.** What about the “Minimum Inhibitory Concentration” value [2] of the same compound?
**A.** The value was >64 mg/L.

**Q.** And the “Minimum Inhibitory Concentration” value [3]?
**A.** The value was 4 mg/L.

**Q.** What about the “Minimum Inhibitory Concentration” value [4] of the same compound?
**A.** The value was 16 mg/L.

**Q.** What does the source list for C[C@H]1[C@H](NC(=O)/C(=N\OCc2cc(=O)c(O)cn2O)c2cccs2)C(=O)N1S(=O)(=O)O [Compound A, (3S)-trans-3-[(E)-2-(2-thienyl)-2-{(1,5-dihydroxy-4-pyridon-2-ylmethoxy)imino}-acetamido]-4-methyl-2-oxazetidine-1-sulfonic acid]?
**A.** Minimum Inhibitory Concentration [1]: >64 mg/L; Minimum Inhibitory Concentration [2]: >64 mg/L; Minimum Inhibitory Concentration [3]: >64 mg/L; Minimum Inhibitory Concentration [4]: >64 mg/L

**Q.** What does the source list for C[C@H]1[C@H](NC(=O)/C(=N/OCc2cc(=O)c(O)cn2O)c2cccs2)C(=O)N1S(=O)(=O)O [Compound B]?
**A.** Minimum Inhibitory Concentration [1]: >64 mg/L; Minimum Inhibitory Concentration [2]: >64 mg/L; Minimum Inhibitory Concentration [3]: >64 mg/L; Minimum Inhibitory Concentration [4]: >64 mg/L

**Q.** What does the source list for CC1(C)[C@H](NC(=O)/C(=N\OCc2cc(=O)c(O)cn2O)c2csc(N)n2)C(=O)N1OS(=O)(=O)O [Compound of formula I, (3S)-3-{(2Z)-2-(2-amino(1,3-thiazol-4-yl))-3-[(1,5-dihydroxy-4-oxo(2-hydropyridyl))methoxy]-3-azaprop-2-enoylamino}-4,4-dimethyl-2-oxoazetidinyl hydroxysulfonate]?
**A.** Minimum Inhibitory Concentration [1]: 16 mg/L; Minimum Inhibitory Concentration [2]: 16 mg/L; Minimum Inhibitory Concentration [3]: 32 mg/L; Minimum Inhibitory Concentration [4]: 16 mg/L

**Q.** What does the source list for C[C@@H](O)[C@H]1C(=O)N2C(C(=O)O)=C(S[C@@H]3CN[C@H](CNS(N)(=O)=O)C3)[C@H](C)[C@H]12 [Doripenem]?
**A.** Minimum Inhibitory Concentration [1]: 8 mg/L; Minimum Inhibitory Concentration [2]: 16 mg/L; Minimum Inhibitory Concentration [3]: 4 mg/L; Minimum Inhibitory Concentration [4]: 16 mg/L

**Q.** For C[C@@H](O)[C@H]1C(=O)N2C(C(=O)O)=C(S[C@@H]3CN[C@H](C(=O)Nc4cccc(C(=O)O)c4)C3)[C@H](C)[C@H]12 [Ertapenem], which “Minimum Inhibitory Concentration” value [1] is on record?
**A.** The value was >32 mg/L.

**Q.** And the “Minimum Inhibitory Concentration” value [2]?
**A.** Its value is >32 mg/L.

**Q.** And the “Minimum Inhibitory Concentration” value [3]?
**A.** Its value is >32 mg/L.

**Q.** And the “Minimum Inhibitory Concentration” value [4]?
**A.** The value was >32 mg/L.

**Q.** C[C@@H](O)[C@H]1C(=O)N2C(C(=O)O)=C(SCCN=CN)C[C@H]12 [Imipenem] was tested. Which “Minimum Inhibitory Concentration” value [1] did it give?
**A.** Its value is 32 mg/L.

**Q.** What about the “Minimum Inhibitory Concentration” value [2] of the same compound?
**A.** Its value is 4 mg/L.

**Q.** And the “Minimum Inhibitory Concentration” value [3]?
**A.** The value was 16 mg/L.

**Q.** And the “Minimum Inhibitory Concentration” value [4]?
**A.** The value was 4 mg/L.

**Q.** Which results are given for C[C@@H](O)[C@H]1C(=O)N2C(C(=O)O)=C(S[C@@H]3CN[C@H](C(=O)N(C)C)C3)[C@H](C)[C@H]12 [Meropenem]?
**A.** Minimum Inhibitory Concentration [1]: 16 mg/L; Minimum Inhibitory Concentration [2]: 16 mg/L; Minimum Inhibitory Concentration [3]: 4 mg/L; Minimum Inhibitory Concentration [4]: 16 mg/L
